Test results as given in PubChem BioAssay (NCI).
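48-hour exposure; five concentrations; linearly interpolated endpoints. The concentration for full growth arrest is given as TGI.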

How the values were obtained:
Assay in all cases: NCI anticancer screen, dose series, 48 h
HCT-116 colon = system: HCT-116 colon
OVCAR-5 ovarian = system: OVCAR-5 ovarian
KM12 colon = system: KM12 colon
RPMI-8226 leukemia = system: RPMI-8226 leukemia
BT-549 breast = system: BT-549 breast
CAKI-1 renal = system: CAKI-1 renal
MALME-3M melanoma = system: MALME-3M melanoma
MDA-MB-435 = system: MDA-MB-435
OVCAR-3 ovarian = system: OVCAR-3 ovarian
UACC-257 melanoma = system: UACC-257 melanoma
HT29 colon = system: HT29 colon
SK-MEL-5 melanoma = system: SK-MEL-5 melanoma
U251 CNS = system: U251 CNS
HOP-92 NSCLC = system: HOP-92 NSCLC
SK-MEL-28 melanoma = system: SK-MEL-28 melanoma
MCF7 breast = system: MCF7 breast
HOP-62 NSCLC = system: HOP-62 NSCLC
MDA-N = system: MDA-N
HS 578T breast = system: HS 578T breast
M14 melanoma = system: M14 melanoma
SN12C renal = system: SN12C renal
SR leukemia = system: SR leukemia
MOLT-4 leukemia = system: MOLT-4 leukemia
SK-OV-3 ovarian = system: SK-OV-3 ovarian
LOX IMVI melanoma = system: LOX IMVI melanoma
K-562 leukemia = system: K-562 leukemia
OVCAR-4 ovarian = system: OVCAR-4 ovarian
HCT-15 colon = system: HCT-15 colon
SNB-19 CNS = system: SNB-19 CNS
SF-268 CNS = system: SF-268 CNS
SW-620 colon = system: SW-620 colon
NCI-H23 lung = system: NCI-H23 lung
OVCAR-8 ovarian = system: OVCAR-8 ovarian
ACHN renal = system: ACHN renal
A549 NSCLC = system: A549 NSCLC
HCC-2998 colon = system: HCC-2998 colon
HL-60(TB) leukemia = system: HL-60(TB) leukemia
SF-539 CNS = system: SF-539 CNS
SNB-75 CNS = system: SNB-75 CNS
TK-10 renal = system: TK-10 renal
786-0 renal = system: 786-0 renal
DU-145 prostate = system: DU-145 prostate
COLO 205 colon = system: COLO 205 colon
SF-295 CNS = system: SF-295 CNS
PC-3 prostate = system: PC-3 prostate
NCI-H522 lung = system: NCI-H522 lung
MDA-MB-231 breast = system: MDA-MB-231 breast
NCI/ADR-RES ovarian = system: NCI/ADR-RES ovarian
SK-MEL-2 melanoma = system: SK-MEL-2 melanoma
NCI-H460 lung = system: NCI-H460 lung
UACC-62 melanoma = system: UACC-62 melanoma
A498 renal = system: A498 renal
RXF 393 renal = system: RXF 393 renal
CCRF-CEM leukemia = system: CCRF-CEM leukemia
NCI-H226 lung = system: NCI-H226 lung
EKVX NSCLC = system: EKVX NSCLC
UO-31 renal = system: UO-31 renal
IGROV1 ovarian = system: IGROV1 ovarian

Measured: TGI

OCCN1c2ccccc2Sc2ccccc21
not listed: SK-MEL-2 melanoma | NCI-H460 lung | UACC-62 melanoma | A498 renal | RXF 393 renal | CCRF-CEM leukemia | NCI-H226 lung | EKVX NSCLC | UO-31 renal | IGROV1 ovarian
> 10 µM: all other assays above

CC(C)C(=O)OCC1CCCN2CCCCC12 (stereo not drawn)
97.6 µM: HT29 colon
not listed: SR leukemia | NCI-H522 lung | IGROV1 ovarian
> 100 µM: all other assays above

CC(C)C1=C(O)C2=C(C(=O)C1=O)C1(C)CCCC(C)(C)C1CC2O (stereo not drawn)
63.2 µM: SW-620 colon
62 µM: HT29 colon
45.5 µM: SK-OV-3 ovarian
30.4 µM: HL-60(TB) leukemia
22.8 µM: MCF7 breast
21.1 µM: HOP-62 NSCLC
38.6 µM: A498 renal
43.2 µM: OVCAR-5 ovarian
28 µM: SN12C renal
13.2 µM: ACHN renal
52.7 µM: SF-539 CNS
5.23 µM: SK-MEL-5 melanoma
58.4 µM: SR leukemia
90.7 µM: OVCAR-8 ovarian
12.8 µM: NCI-H460 lung
13.6 µM: MDA-MB-435
15.3 µM: M14 melanoma
31.9 µM: UACC-257 melanoma
34.8 µM: A549 NSCLC
13.3 µM: HOP-92 NSCLC
38.5 µM: SK-MEL-28 melanoma
24.1 µM: CAKI-1 renal
49.7 µM: EKVX NSCLC
64.4 µM: SF-295 CNS
19 µM: KM12 colon
5.89 µM: RXF 393 renal
23.6 µM: CCRF-CEM leukemia
8.66 µM: UACC-62 melanoma
82.6 µM: OVCAR-4 ovarian
77.7 µM: IGROV1 ovarian
4.76 µM: MDA-N
17.9 µM: UO-31 renal
31.7 µM: PC-3 prostate
13.8 µM: HCT-15 colon
11 µM: SK-MEL-2 melanoma
25.9 µM: BT-549 breast
29 µM: OVCAR-3 ovarian
16.6 µM: MALME-3M melanoma
21.4 µM: SNB-19 CNS
12 µM: HCC-2998 colon
9.46 µM: MDA-MB-231 breast
53.7 µM: NCI-H522 lung
3.93 µM: NCI-H23 lung
not listed: RPMI-8226 leukemia | NCI/ADR-RES ovarian | NCI-H226 lung
> 100 µM: all other assays above
